Measured values from US9409892B2, “4-hydroxy-isoquinoline compounds as HIF hydroxylase inhibitors” (FIBROGEN, INC., priority 2012, dated 2016).

Legend:
PHD1 (EGLN2) = PHD1 (EGLN2) (Homo sapiens (Human), UniProt Q96KS0); assay: HIF-PH assay (14CO2 capture), PHD1 enzyme inhibition; format: biochemical; conditions: Table 1; for IC50: individual measurement, read-out: IC50 (μM) PHD1; for PHD2/PHD1: ratio of the IC50 of the compound for each enzyme
PHD2 (EGLN1) = PHD2 (EGLN1) (Homo sapiens (Human), UniProt Q9GZT9); assay: HIF-PH assay (14CO2 capture), PHD2 enzyme inhibition; format: biochemical; conditions: Table 1; individual measurement; read-out: IC50 (μM) PHD2
PHD2 (EGLN1), sequence (Q9GZT9 whole entry): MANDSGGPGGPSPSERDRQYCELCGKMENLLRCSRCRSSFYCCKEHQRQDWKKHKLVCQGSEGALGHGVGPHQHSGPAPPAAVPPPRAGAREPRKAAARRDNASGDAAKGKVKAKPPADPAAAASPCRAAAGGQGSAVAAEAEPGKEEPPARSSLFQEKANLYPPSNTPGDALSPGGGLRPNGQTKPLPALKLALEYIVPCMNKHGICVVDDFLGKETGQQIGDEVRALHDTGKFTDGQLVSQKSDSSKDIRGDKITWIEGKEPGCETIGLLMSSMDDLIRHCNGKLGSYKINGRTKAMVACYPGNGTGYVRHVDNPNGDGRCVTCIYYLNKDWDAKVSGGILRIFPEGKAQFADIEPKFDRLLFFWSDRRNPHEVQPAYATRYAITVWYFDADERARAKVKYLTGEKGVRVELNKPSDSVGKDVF

PHD1 (EGLN2), sequence (Q96KS0 whole entry): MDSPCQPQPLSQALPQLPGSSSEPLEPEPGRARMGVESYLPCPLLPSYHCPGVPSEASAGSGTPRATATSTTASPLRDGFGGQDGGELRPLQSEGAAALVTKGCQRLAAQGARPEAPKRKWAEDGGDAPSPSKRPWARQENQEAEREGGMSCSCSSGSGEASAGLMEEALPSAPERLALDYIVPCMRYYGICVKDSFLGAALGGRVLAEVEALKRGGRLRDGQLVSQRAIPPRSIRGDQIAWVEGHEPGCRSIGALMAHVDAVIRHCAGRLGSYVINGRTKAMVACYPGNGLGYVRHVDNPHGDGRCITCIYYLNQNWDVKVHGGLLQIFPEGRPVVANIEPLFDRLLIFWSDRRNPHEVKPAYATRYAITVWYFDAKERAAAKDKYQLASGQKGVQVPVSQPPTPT

With `N#Cc1nc(C(=O)NC(CC(=O)O)c2ccccc2)c(O)c2ccc(Oc3ccccc3)cc12` (stereo not drawn) [Compound 91, 3-[(1-Cyano-4-hydroxy-7-phenoxy-isoquinoline-3-carbonyl)-amino]-3-phenyl-propionic acid] the IC50 (PHD1 (EGLN2)) was 1.91 µM, the PHD2/PHD1 (PHD1 (EGLN2)) was 6 and the IC50 (PHD2 (EGLN1)) was 11.3 µM.

Work on `C[C@H](CNC(=O)c1nc(C#N)c2cc(Oc3ccccc3)ccc2c1O)C(=O)O` [Compound 92, 3-[(1-Cyano-4-hydroxy-7-phenoxy-isoquinoline-3-carbonyl)-amino]-2-(R)-methyl-propionic acid] yielded an IC50 (PHD1 (EGLN2)) of 0.28 µM, a PHD2/PHD1 (PHD1 (EGLN2)) of 14 and an IC50 (PHD2 (EGLN1)) of 3.88 µM.

Compound `C[C@@H](CNC(=O)c1nc(C#N)c2cc(Oc3ccccc3)ccc2c1O)C(=O)O` [Compound 93, 3-[(1-Cyano-4-hydroxy-7-phenoxy-isoquinoline-3-carbonyl)-amino]-2-(S)-methyl-propionic acid] has an IC50 (PHD1 (EGLN2)) of 0.16 µM, a PHD2/PHD1 (PHD1 (EGLN2)) of 15 and an IC50 (PHD2 (EGLN1)) of 2.4 µM.

`CO[C@@H](CCNC(=O)c1nc(C#N)c2cc(Oc3ccccc3)ccc2c1O)C(=O)O` [Compound 94, 4-[(1-Cyano-4-hydroxy-7-phenoxy-isoquinoline-3-carbonyl)-amino]-2-(S)-methoxy-butyric acid] gave an IC50 (PHD1 (EGLN2)) of 0.31 µM, a PHD2/PHD1 (PHD1 (EGLN2)) of 7 and an IC50 (PHD2 (EGLN1)) of 2.18 µM.

In the case of `CC(C)(CCCNC(=O)c1nc(C#N)c2cc(Oc3ccccc3)ccc2c1O)C(=O)O` [Compound 95, 5-[(1-Cyano-4-hydroxy-7-phenoxy-isoquinoline-3-carbonyl)-amino]-2,2-dimethyl-pentanoic acid], the IC50 (PHD1 (EGLN2)) is reported as 0.74 µM, the PHD2/PHD1 (PHD1 (EGLN2)) is reported as 5 and the IC50 (PHD2 (EGLN1)) is reported as 3.5 µM.

`CC(C)(C)OC(=O)N1CCC(CC(=O)O)(NC(=O)c2nc(C#N)c3cc(Oc4ccccc4)ccc3c2O)CC1` [Compound 96, 4-Carboxymethyl-4-[(1-cyano-4-hydroxy-7-phenoxy-isoquinoline-3-carbonyl)-amino]-piperidine-1-carboxylic acid tert-butyl ester] showed an IC50 (PHD1 (EGLN2)) of 11.3 µM, a PHD2/PHD1 (PHD1 (EGLN2)) of 14 and an IC50 (PHD2 (EGLN1)) of 158 µM.

`N#Cc1nc(C(=O)NCCC(=O)O)c(O)c2ccc(Oc3ccc(F)cc3Cl)cc12` [Compound 97, 3-{[7-(2-Chloro-4-fluoro-phenoxy)-1-cyano-4-hydroxy-isoquinoline-3-carbonyl]-amino}-propionic acid] showed an IC50 (PHD1 (EGLN2)) of 1.3 µM, a PHD2/PHD1 (PHD1 (EGLN2)) of 6 and an IC50 (PHD2 (EGLN1)) of 7.43 µM.

For `N#Cc1nc(C(=O)NCCCCC(=O)O)c(O)c2ccc(Oc3ccc(F)cc3Cl)cc12` [Compound 98, 5-{[7-(2-Chloro-4-fluoro-phenoxy)-1-cyano-4-hydroxy-isoquinoline-3-carbonyl]-amino}-pentanoic acid], the IC50 (PHD1 (EGLN2)) was 0.27 µM, the PHD2/PHD1 (PHD1 (EGLN2)) was 14 and the IC50 (PHD2 (EGLN1)) was 3.73 µM.

In the case of `CC(C)(CNC(=O)c1nc(C#N)c2cc(Oc3ccc(F)cc3Cl)ccc2c1O)C(=O)O` [Compound 99, 3-{[7-(2-Chloro-4-fluoro-phenoxy)-1-cyano-4-hydroxy-isoquinoline-3-carbonyl]-amino}-2,2-dimethyl-propionic acid], the IC50 (PHD1 (EGLN2)) is reported as 0.29 µM, the PHD2/PHD1 (PHD1 (EGLN2)) is reported as 19 and the IC50 (PHD2 (EGLN1)) is reported as 5.55 µM.

For `O=C(O)CCCCNC(=O)c1ncc2cc(Oc3c(F)cccc3F)ccc2c1O` [Compound 100, 5-{[7-(2,6-Difluoro-phenoxy)-4-hydroxy-isoquinoline-3-carbonyl]-amino}-pentanoic acid], the IC50 (PHD1 (EGLN2)) was 23.1 µM, the PHD2/PHD1 (PHD1 (EGLN2)) was 9 and the IC50 (PHD2 (EGLN1)) was 200 µM.

With `CC(C)(CNC(=O)c1nc(C#N)c2cc(Oc3ccc(F)cc3)ccc2c1O)C(=O)O` [Compound 101, 3{-[1-Cyano-7-(4-fluoro-phenoxy)-4-hydroxy-isoquinoline-3-carbonyl]-amino}-2,2-dimethyl-propionic acid] the IC50 (PHD1 (EGLN2)) was 0.41 µM, the PHD2/PHD1 (PHD1 (EGLN2)) was 11 and the IC50 (PHD2 (EGLN1)) was 4.65 µM.

Work on `CC(C)(CC(=O)O)NC(=O)c1nc(C#N)c2cc(Oc3ccc(F)cc3)ccc2c1O` [Compound 102, 3{-[1-Cyano-7-(4-fluoro-phenoxy)-4-hydroxy-isoquinoline-3-carbonyl]-amino}-3-methyl-butyric acid] yielded an IC50 (PHD1 (EGLN2)) of 0.53 µM, a PHD2/PHD1 (PHD1 (EGLN2)) of 16 and an IC50 (PHD2 (EGLN1)) of 8.5 µM.
